Results as given in US20250098683A1 (priority 2018, published 2025).

Columns and labels:
bacteria [1] = test: Seed wash liquid streaked on LB media plates, inspected for bacterial growth; assay type: cell-based; conditions: treated five minutes, 37 C overnight
Protocol: (§1) Carrot, Swiss chard, and spinach seeds (1 kg, 5 kg, and 5 kg respectively) were placed into separate Petri dishes. From each of these seeds, 9 samples were taken, each sample weighing 50 grams. […] The liquid of carrot and Swiss chard treatments were streaked on LB media plates, and kept in a 37 degrees Celsius incubator overnight, and inspected for bacterial growth on the following day. The treated seed were dried in 40 C oven for three days, and some seeds were placed on LB or PDA plates.

bacteria [2] = test: Treated, dried seeds placed on LB or PDA plates; assay type: cell-based
Protocol: as §1

## [Na+].[O-]Cl [1.2% bleach, Sodium hypochlorite]
Bacteria [1]; Swiss chard seeds
  bacteria in wash liquid after Swiss chard seeds were washed: some bacteria
Bacteria [1]; carrot seeds
  bacteria in wash liquid after carrot seeds were washed: some bacteria
Bacteria [2]; Swiss chard seeds on LB plates
  Swiss chard seeds from which bacteria were found: about 50%
Bacteria [2]; carrot seeds, three days after placing on LB plates
  carrot seeds from which bacteria were found: about 50%
Bacteria [2]; spinach seeds on plates
  microbes found from spinach seed: both fungal and bacterial microbes were found
